Source: a melting point compilation (Tetko et al.; mined from patent text by program, amines drawn as free bases though some values may be those of a salt)

Molecule COc1ccc2cc(C(C)C(=O)OCc3ccc(OC(=O)OCCC(C)(C)C)cc3)ccc2c1 (stereo not given) has a melting point of 63 to 64 °C.
In the case of O=C(O)CCNc1cccc(Br)n1, the melting point was 108 to 109 °C.
For Nc1ncc(Cc2ccc3c(c2)OCO3)c(N)n1, the melting point was 248 to 255 °C.
CC(C)(C)OC(=O)N1CCC(c2c(F)cc(N3C[C@H](CN=[N+]=[N-])OC3=O)cc2F)CC1 gave a melting point of 125 to 127 °C.
CCCCCCCCCCCCC(=O)c1c[nH]c(C(=O)OC)c1 gave a melting point of 92 to 93 °C.
Oc1ccc(Sc2cccc(F)n2)cc1 gave a melting point of 123 to 124 °C.
Molecule CCOC(=O)/C=C(C)/C=C/C1=C(Br)CCC1 has a melting point of 85 to 86 °C.
Molecule Clc1c(Br)cncc1Br has a melting point of 101 to 103 °C.
COC(=O)CC[C@@H](CF)NC(=O)c1ccccc1 gave a melting point of 99.5 to 100 °C.
With Cc1nc(N)c2ncn(CCOCc3ccncc3)c2c1C the melting point was 195 to 196 °C.
With CN(CC(=O)O)C(=S)c1cccc2c(Br)cccc12 the melting point was 181 °C.
CCOC(=O)C1CCc2c(C)c(O)c(C)c(C)c2O1 (stereo not given) showed a melting point of 108 to 109 °C.
For COc1cc(C)c(C=CC(C)=CC=O)cc1C, the melting point was 90 to 92 °C.
NC(=O)Cc1cc(Oc2ccc3c(ccn3C(=O)Nc3cc(N4CCOCC4)cc(C(F)(F)F)c3)c2)ncn1 showed a melting point of 144 to 146 °C.
Work on Cc1cc2c(cc1OC(=S)N(C)C)C(C)(C)CCC2(C)C yielded a melting point of 102 to 103 °C.
O=C(NCCCCCn1ccnc1)c1ccc(Cl)s1 showed a melting point of 123 to 125 °C.
O=c1oc2cc(Oc3nnnn3-c3ccccc3)ccc2c2c1CN(Cc1ccccc1)CC2 showed a melting point of 165 to 166 °C.
Work on O=C(CCCCOc1ccccc1)C(F)(F)F yielded a melting point of 50 to 51 °C.
In the case of COc1cc(C#Cc2ccccc2)c(OC)cc1C#Cc1ccccc1, the melting point was 172 to 174 °C.
COc1cc(Cl)c(Cl)cc1Oc1ccc(Cl)cc1 showed a melting point of 105 °C.
For [N-]=[N+]=Nc1ccc(C(=O)NCCCC[C@@H](C(=O)O)n2c3ccccc3c3ccccc32)cc1, the melting point was 98 to 100 °C.
For CCn1cc(C(=O)O)c(=O)c2cc(C=NO)sc21, the melting point was 315 to 317 °C.
CCOc1ccccc1N1CCN(CCC2OCCc3cc(C(N)=O)ccc32)CC1 (stereo not given) showed a melting point of 208 to 210 °C.
With COC(=O)N=C(NC(=O)OC)Nc1ccc(S(=O)CC(C)C)cc1NC(=O)CS(C)=O (stereo not given) the melting point was 149 to 150 °C.
Work on CC(CO)c1ccc2oc3nc(N)c(C(=O)O)cc3c(=O)c2c1 (stereo not given) yielded a melting point greater than 300 °C.
COc1cc(/C=C/C(=O)/C=C/c2ccc(OC(F)(F)F)cc2)ccc1O showed a melting point of 93 to 95 °C.
With COc1cc2c(cc1OC)Nc1nccn1C2 the melting point was 215 to 217 °C.
With CCOc1ccccc1-c1nc2n(C3CCCC3)[nH]c(CC)c-2c(=O)n1 the melting point was 146 to 147 °C.
O=c1c2ccccc2c(Br)c(Br)c2ccc(Br)cc12 gave a melting point of 173 to 175 °C.
c1cncc(OCCCCCCOc2cccnc2)c1 showed a melting point of 85 °C.
CCOC(=O)c1c(-c2cccc(C)c2)csc1N1C(=O)c2ccccc2C1=O gave a melting point of 175 to 176 °C.
c1cc(CC[C@H]2CNCCN2)co1 gave a melting point of 112 to 114 °C.
Molecule Cc1ccc(Cl)cc1N1CN(Cc2ccccc2)CN(Cc2ccccc2)C1=S has a melting point of 202 to 203 °C.
CC(C)COC(=O)Sc1ccc(-c2ccc(C(CCl)NC(=O)c3c(F)cccc3F)cc2)cc1 (racemic) showed a melting point of 171 to 173 °C.
Molecule Cc1c(C)c2c(c(C)c1O)CCC(C#N)(C(C)C)O2 (stereo not given) has a melting point of 132 °C.
CCCCCCS(=O)(=O)Oc1c(I)cc(I)cc1I showed a melting point of 70 to 71 °C.
For COC(=O)c1ccc(CN2C(=O)C(CCO)Oc3ccccc32)cc1 (stereo not given), the melting point was 94 to 95 °C.
O=C1N(Cc2ccc(C(F)(F)F)o2)c2c(F)cccc2C12COc1cc3c(cc12)OCO3 (stereo not given) showed a melting point of 116 to 118 °C.
Work on O=C(O)c1cc(N2CCN(Cc3ccccc3)CC2)ccc1[N+](=O)[O-] yielded a melting point of 172 °C.
In the case of C[C@H]1C(=O)Nc2ccc(Cl)cc2N1C(=O)Oc1ccc(F)cc1, the melting point was 168 to 170 °C.
For O=C(C(=O)N1CCCCC1)N1CCCCC1, the melting point was 88 to 90 °C.
In the case of Cc1ccc(-c2nc3ccccc3c(=O)[nH]2)cc1, the melting point was 239 to 241 °C.
CCOC(=O)C(C)(C)Oc1ccc(-c2ccc(CCNC(=O)c3cc(OC)c(OC)c(OC)c3)cc2)cc1 showed a melting point of less than 20 °C.
Molecule O=S(O)c1ccc2c(c1)CCCC2 has a melting point of 82 to 85 °C.
With CCNC(=O)c1sc(SC)c2c1CCc1sc(-c3ccccc3)nc1-2 the melting point was 211 to 212 °C.
CCC(=O)NCCC1=CCc2cnc3c(c21)CCO3 gave a melting point of 111 to 112 °C.
Work on CCCC(=O)c1c[nH]c2c(COC(=O)c3ccccc3)cccc2c1=O yielded a melting point of 115 to 117 °C.
CCNC(=O)c1sc2ccccc2c1[Si](C)(C)C gave a melting point of 131 to 134 °C.
Work on CCc1c(S(=O)(=O)c2ccc(=O)[nH]n2)oc2ccc(Cl)cc12 yielded a melting point of 209 to 210 °C.
Molecule C#CCNc1cccc2c1OC(F)(F)O2 has a melting point of 66 to 68 °C.
Molecule O=C(Nc1ccccc1)C1CSc2sccc2C1=O (stereo not given) has a melting point of 155 to 158 °C.
Work on COc1cc(C2=NC(C)(C)C(c3ccncc3)C2)cc(OC)c1OC (stereo not given) yielded a melting point of 143 to 144 °C.
With COc1ccc(CC(C)NCC(O)c2ccccc2Cl)cc1OC (stereo not given) the melting point was 113 to 114 °C.
In the case of CCOc1ccccc1OCC1CN=C(N)O1 (stereo not given), the melting point was 130 °C.
O=C(Nc1ccc(-c2ccccc2)cc1C(=O)O)OCc1cc2cc(-c3ccccc3)ccc2o1 showed a melting point of 226 °C.
In the case of OC1CCN(Cc2cccc(F)c2)CC1, the melting point was 61 to 62 °C.
With CCN1c2ncccc2C(=O)N(C)c2ccc(-c3cc[nH]c3C(C)=O)nc21 the melting point was greater than 80 °C.
In the case of CCOC(=O)/C=C/c1cc(-c2ncc(C(F)(F)F)cc2Cl)ccc1Cl, the melting point was 118 to 120 °C.
For COc1ccc(S(=O)(=O)Oc2ccc3[nH]cc(C4CCN(C)CC4)c3c2)cc1, the melting point was 186 to 187 °C.
With COC(=O)c1ccc2sc(C)c(Cl)c2c1 the melting point was 85 to 86 °C.
Work on NC(=O)c1cc(Oc2ccc3c(C(=O)Nc4cccc(C(F)(F)F)c4)cccc3c2)ccn1 yielded a melting point of 117 to 120 °C.
Molecule CCOC(=O)c1cc2c(C=O)c(OC[C@H]3CO3)ccc2[nH]1 has a melting point of 152 to 154 °C.
Cc1cc2c(cc1-c1c[nH]c(C=O)c1)C(C)(C)CCC2(C)C gave a melting point of 128 to 129 °C.
With CCCCCC(=O)Nc1ccc2ccn(CCCCCCCC(=O)OC)c2c1 the melting point was 61 to 63 °C.
CCCCNC(=O)NS(=O)(=O)c1c(Cl)cccc1-c1ccccc1 showed a melting point of 184 to 186 °C.
CC(NC(=O)OC(C)(C)C)C(=O)Nc1cc(OCC(F)(F)F)ccc1-c1cccnc1 (stereo not given) showed a melting point of 149 to 152 °C.
O=C1CC(c2ccccc2)=Nc2ccccc2N1Cc1ccccc1 showed a melting point of 122 to 123 °C.
Molecule COC(=O)C(C)N(C(=O)CO)c1c(C)csc1C (stereo not given) has a melting point of 69 to 70 °C.
For CN1CCc2cccc3c4c(n(c23)CC1)CCSC4, the melting point was 123 to 125 °C.
Molecule Cn1cc(-c2ccc(F)cc2)nc1SCCSc1nc(-c2ccc(F)cc2)c(-c2ccc(F)cc2)[nH]1 has a melting point of 202 to 205 °C.
Molecule COc1ccc(C(=O)Nc2ccccc2)cc1NCc1cccc(C(F)(F)F)c1 has a melting point of 167 to 171 °C.
In the case of CCOC(=O)c1cc2c(C)c(F)ccc2[nH]1, the melting point was 148 to 149 °C.
Work on CCCCC(CC)Cn1c(O)c(N=Nc2ccc(S(=O)(=O)N(CCO)CCO)cc2)c(C)c(C#N)c1=O (stereo not given) yielded a melting point of 189 to 190 °C.
COC(=O)C(Oc1cc(OCc2ccnnc2)ccc1C#N)c1ccccc1Cl (racemic) showed a melting point of 136 to 138 °C.
For CNC(=O)N(O)C(C)c1ccc(Cl)cc1 (stereo not given), the melting point was 117 to 120 °C.
O=C1Nc2cccc(-c3cccc(NS(=O)(=O)c4cc(S(=O)(=O)c5ccccc5)cs4)c3)c2/C1=C/c1ccc[nH]1 gave a melting point of 132 to 134 °C.
NCC1Cc2cc(-c3ccccc3)cc(-c3ccc(F)cc3F)c2O1 (stereo not given) showed a melting point of 159 to 162 °C.
Molecule CC1c2cccn2-c2ccc(F)cc2N1S(=O)(=O)c1ccc(O)cc1 (stereo not given) has a melting point of 180 to 182 °C.
Molecule COc1cccc(C(=O)N2CCCC3=C2CCc2cc(Cl)ccc23)c1 has a melting point of 133 °C.
In the case of COC(=O)c1cc(CCCNCc2ccccc2)ccc1OCc1ccccc1, the melting point was 75 to 77 °C.
With CNN(NC)C(=S)Oc1cc(C)ccc1C(=O)OC the melting point was 99.9 to 100 °C.
O=c1ccc2ccccc2n1O gave a melting point of 188 °C.
With CCCN1Cc2cc(Oc3cccc(NCc4c(C)cc(C)cc4C)c3)ccc2N=C1N the melting point was 238 °C.
In the case of CCOP(=S)(NCc1cccc(-c2nc(=O)c3ccccc3s2)n1)OCC, the melting point was 132 to 133 °C.
Work on NS(=O)(=O)NC[C@H]1COc2ccc(Cl)cc2O1 yielded a melting point of 118 to 119 °C.
Work on FCc1nc(C#CCCc2cn3cc(F)ccc3n2)cs1 yielded a melting point of 82 to 84 °C.
Molecule O=C(O)/C=C/n1cnc2ccc(C3CC3)cc2c1=O has a melting point of 291 to 293 °C.
O=C(O)COc1ccc(SCc2cccc(OCc3ccc(Cl)c(C(F)(F)F)c3)c2)c2c1CCC2 gave a melting point of 121 to 122 °C.
COc1ccc(OC)c2c1C(=O)C=C(SCCCCCCCCCCC(=O)NCC(C)C)C2=O showed a melting point of 74 to 75 °C.
CCCCNC(=S)Nc1ccc(NNC=O)c(OC)c1 showed a melting point of 130 to 132 °C.
Work on CCOc1ccc(-c2ccc(O)c(C=O)c2)cc1 yielded a melting point of 94 to 95 °C.
CC(=O)NC[C@H]1CN(c2ccc(N3CCC(=C(C#N)n4ccnc4)CC3)c(F)c2)C(=O)O1 showed a melting point of 196 to 198 °C.
N#CCCNC(=O)C1=CC(CF)(CF)Oc2ccc(C(F)(F)C(F)(F)F)cc21 showed a melting point of 144 to 145 °C.
Work on CCOC(CNC(=S)Nc1cccc2nc(C)ccc12)OCC yielded a melting point of 181 to 185 °C.
With O=CNc1nc2ccc([N+](=O)[O-])cc2s1 the melting point was 248 to 251 °C.
With CCOC(=O)C(=O)c1cc(F)cc2cccnc12 the melting point was 114 to 117 °C.
COC(C)(C)c1ccc(Cl)c2nc3n(c12)CCCN3c1ccc(Cl)cc1Cl showed a melting point of 203 to 204 °C.
Work on CN(C)C1CCCN(C(=O)c2ccc(NC(=O)Cc3ccccc3Cl)cc2)c2ccccc21 (stereo not given) yielded a melting point of 187 to 189 °C.
Molecule CCOC(=O)/C=C/c1ccc(Br)nc1 has a melting point of 79 to 80 °C.
CC(=O)c1cc(O)c(O)c([N+](=O)[O-])c1 showed a melting point of 159 to 160 °C.
With CC(C)(C)OC(=O)CS(=O)c1cccc(-c2nc(=O)c3ccccc3s2)n1 (stereo not given) the melting point was 159 °C.
In the case of CCOC(=O)C1CCN(c2nnc(NCc3ccc(OC)c(Cl)c3)c3cc([N+](=O)[O-])ccc23)CC1, the melting point was 208 to 210 °C.
Cc1cc2c(c3occ(-c4ccc(C(C)C)cc4)c13)CCCC2 showed a melting point of 97 to 98 °C.
In the case of CS(=O)(=O)c1ccc(-c2cnn(Cc3ccc(F)cc3F)c(=O)c2-c2ccc(F)cc2)cc1, the melting point was 179 to 182 °C.
Molecule Cc1cccc(C(=O)N2CCC3(CC2)CSC2=C(O3)c3ccccc3C(=O)C2=O)c1 has a melting point of 188 to 190 °C.
